Data taken from patent US10244756B2, “Fungicidal N-cycloalkyl-N-{[ortho-(1-substituted-cycloalkyl)heteroaryl]methyl}(thio)carboxamides” (Bayer CropScience Aktiengesellschaft, priority 2015, dated 2019).

Key:
[1] = system: Puccinia recondita; assay: In vivo preventive test on Puccinia recondita (brown rust on wheat); details: Table A2, dose 100 ppm, evaluated 11 days after inoculation
Procedure: (§1) Example A: In Vivo Preventive Test on Puccinia Recondita (Brown Rust on Wheat) Solvent: 5% by volume of Dimethyl sulfoxide • 10% by volume of Acetone Emulsifier: 1 μL of Tween® 80 per mg of active ingredient The active ingredients are made soluble and homogenized in a mixture of Dimethyl sulfoxide/Acetone/Tween® 80 and then diluted in water to the desired concentration. The young plants of wheat are treated by spraying the active ingredient prepared as described above. Control plants are treated only with an aqueous solution of Acetone/Dimethyl sulfoxide/Tween® 80. After 24 hours, the plants are contaminated by spraying the leaves with an aqueous suspension of Puccinia recondita spores. The contaminated wheat plants are incubated for 24 hours at 20° C. and at 100% relative humidity and then for 10 days at 20° C. and at 70-80% relative humidity. The test is evaluated 11 days after the inoculation. 0% means an efficacy which corresponds to that of the control plants while an efficacy of 100% means that no disease is observed.

[2] = system: Uromyces appendiculatus; assay: In vivo preventive test on Uromyces appendiculatus (bean rust); details: Table B2, dose 100 ppm, evaluated 11 days after inoculation
Procedure: as §1, with “B:” for “A:”, “Uromyces Appendiculatus (Bean Rust)” for “Puccinia Recondita (Brown Rust on Wheat)”, “bean” for “wheat”, “Uromyces appendiculatus” for “Puccinia recondita”

[3] = logP by HPLC on reversed-phase column (C 18), EEC Directive 79/831 Annex V.A8; type: physicochemical; details: reversed-phase HPLC column (C 18), 40° C., 0.1% aqueous formic acid and acetonitrile, gradient 10% to 90% acetonitrile
Procedure: In table 1, the logP values were determined in accordance with EEC Directive 79/831 Annex V.A8 by HPLC (High Performance Liquid Chromatography) on a reversed-phase column (C 18), using the method described below: Temperature: 40° C.; Mobile phases: 0.1% aqueous formic acid and acetonitrile; linear gradient from 10% acetonitrile to 90% acetonitrile. Calibration was carried out using unbranched alkan-2-ones (comprising 3 to 16 carbon atoms) with known logP values (determination of the logP values by the retention times using linear interpolation between two successive alkanones). lambda-max-values were determined using UV-spectra from 200 nm to 400 nm and the peak values of the chromatographic signals.

| SMILES | Efficacy [1] | Efficacy [2] | chromatographic logP [3] |
| --- | --- | --- | --- |
| CC(C)c1ncc(Cl)cc1CN(C(=O)c1cn(C)nc1C(F)F)C1CC1 [CMP1, N-[(5-chloro-2-isopropylpyridin-3-yl)methyl]-N-cyclopropyl-3-(difluoromethyl)-1-methyl-1H-pyrazole-4-carboxamide] | 0% | 0% | – |
| Cc1cc(C2(Cl)CC2)c(CN(C(=O)c2cn(C)nc2C(F)F)C2CC2)s1 [Example I.05, N-{[3-(1-chlorocyclopropyl)-5-methyl-2-thienyl]methyl}-N-cyclopropyl-3-(difluoromethyl)-1-methyl-1H-pyrazole-4-carboxamide] | – | – | 3.39 |
